According to ChEMBL document CHEMBL1158740, “Oxylipins arabidopsides C and D from Arabidopsis thaliana” (2005):

Tested on: Lepidium sativum
Assay: Inhibition of Lepidium sativum cress root growth at 5X10'-5 mol/L after 40 hrs
Type: functional

`CC/C=C\C[C@H]1C(=O)CC[C@@H]1CC(=O)O` [JASMONIC ACID] gave an inhibition at 50 µM of 50%.

`CC/C=C\CC1C(=O)C=CC1CCCCCCCC(=O)OCC(CO[C@@H]1O[C@H](CO[C@H]2O[C@H](CO)[C@H](O)[C@H](O)[C@H]2O)[C@H](O)[C@H](O)[C@H]1O)OC(=O)CCCCCCCC1C=CC(=O)C1C/C=C\CC` (stereo not given in full) [Arabidopside D] was tested, and the inhibition at 50 µM was 30%.

`CC/C=C\C[C@H]1C(=O)C=C[C@H]1CCCCCCCC(=O)OC[C@H](CO[C@@H]1O[C@H](CO)[C@H](O)[C@H](O)[C@H]1O)OC(=O)CCCCC[C@@H]1C=CC(=O)[C@@H]1C/C=C\CC` [ARABIDOPSIDE A] gave an inhibition at 50 µM of 30%.

In the case of `CC/C=C\C[C@H]1C(=O)C=C[C@H]1CCCCCCCC(=O)OC[C@H](CO[C@@H]1O[C@H](CO)[C@H](O)[C@H](O)[C@H]1O)OC(=O)CCCCCCC[C@@H]1C=CC(=O)[C@@H]1C/C=C\CC` [ARABIDOPSIDE B], the inhibition at 50 µM is reported as 30%.

For `CC/C=C\CC1C(=O)C=CC1CCCCCCCC(=O)O` (cis isomer), the inhibition at 50 µM was 50%.
